{"source": "patent EP3838286B1", "about": "“ANTIMICROBIAL PEPTIDE FROM POLISTES GALLICUS VENOM AND ITS ANALOGS” (Latoxan, priority 2019, dated 2021)", "key": {"P. aeruginosa [1]": {"test_system": "P. aeruginosa", "assay": "Antimicrobial tests (MIC/MBC, two-fold serial dilution)", "type": "cell-based, Pseudomonas aeruginosa (ATCC 9037)", "details": "Pseudomonas aeruginosa; Table 3; n=4"}, "S. aureus": {"test_system": "S. aureus", "assay": "Antimicrobial tests (MIC, two-fold serial dilution)", "type": "cell-based, Staphylococcus aureus (ATCC 6538P)", "details": "Staphylococcus aureus; Table 3; n=4"}, "E. coli": {"test_system": "E. coli", "assay": "Antimicrobial tests (MIC, two-fold serial dilution)", "type": "cell-based, E. coli (ATCC 8739)", "details": "Escherichia coli; Table 3; n=4"}, "B. subtilis": {"test_system": "B. subtilis", "assay": "Antimicrobial tests (MIC, two-fold serial dilution)", "type": "cell-based, Bacillus subtilis (ATCC 6633)", "details": "Bacillus subtilis; Table 3; n=4"}, "MDA-MB-231": {"test_system": "MDA-MB-231", "assay": "Antitumor / antiproliferative activity (resazurin)", "type": "cell-based", "details": "Homo sapiens, breast cancer cells, 5,000 cells/well, 48 h, read-out: IC50 antiproliferative effect MDA-MB-231", "experimental": "(§1) Human cancer cell lines (Mia PaCa-2 (CRL-1420), PC-3 (CRL-1435), MDA-MB-231 (HTB-26)) and normal lung fibrobasts (BEAS-2B (ATCC CRL-9609) and IMR-90 (ATCC CCL-186)) were obtained from American Type Culture Collection (ATCC). HUVEC cells were obtained from Sigma Aldrich and were grown in defined all-in-one ready to use endothelial cell growth medium (Sigma Aldrich). Other cells were cultured in Dulbecco's modified Eagle's medium (DMEM, Gibco Life Technologies) supplemented with 10% heat-inactivated fetal calf serum (FCS, Lonza) at 37 °C in an incubator containing 5% CO2. Cells were sub-cultured in new media every 3-4 days. Antiproliferative / antitumor effects of the peptides were measured as previously described (Borie et al., Eur J Med Chem. 2018;148:306-313). Briefly, cells were detached from growing flask using trypsin, cells were counted and seeded in 96 well-plates in the growth media at an initial cell density of 5000 cells/well. Cells were left for 4 h to attach to the wells. Cells were then treated with increasing concentrations of peptides diluted in culture media. After 48 h incubation at 37 °C in a 5% CO2 incubator, wells were emptied and cell number was evaluated using Resazurin based in vitro toxicity assay kit (from Sigma-Aldrich) following manufacturer's instructions. Briefly, Resazurin stock solution was diluted 1:10 in sterile PBS containing calcium and magnesium (PBS, pH 7.4) and empty wells were filled with 100 µL of the diluted solution. After 4 h incubation at 37 °C, fluorescence intensity was measured using microplate reader (Synergy Mx, Biotek) with an excitation wavelength of 530 nm and an emission wavelength of 590 nm. The fluorescence values were normalized by the controls (buffer treated cells) and expressed as per-cent viability. […]"}, "MiaPaCa-2": {"test_system": "MiaPaCa-2", "assay": "Antitumor / antiproliferative activity (resazurin)", "type": "cell-based", "details": "Homo sapiens, MIA PaCa-2; pancreas cancer cells; 5,000 cells/well; 48 h; read-out: IC50 antiproliferative effect MiaPaCa-2", "experimental": "as §1"}, "PC-3": {"test_system": "PC-3", "assay": "Antitumor / antiproliferative activity (resazurin)", "type": "cell-based", "details": "Homo sapiens, prostate cancer cells, 5,000 cells/well, 48 h, read-out: IC50 antiproliferative effect PC-3", "experimental": "as §1"}, "P. aeruginosa [2]": {"test_system": "P. aeruginosa", "assay": "Selection for resistant bacteria (serial passaging)", "type": "cell-based", "details": "daily exposure at sub-MIC levels, 30 days; antibiotics: after 10 days", "experimental": "To evaluate if populations of AMP-resistant bacteria could be selected, cultures were continuously exposed to LTX-gallicune-1 (I1N1) and LTX-gallicune-2(R1W8) peptides for a duration of 30 days, as previously described (Oyama et al., 2017 Biofilms Microbiomes, Dec 1;3:33). Briefly, broth microdilution susceptibility testing was performed using a standard doubling-dilution series of gallicune peptides concentrations on day 1. Following incubation of the cultures for 24 h, and determination of the MIC, the well that contained the highest concentration of AMPs permitting growth was diluted 1: 1000 in MH and used to provide the inoculum for the next MIC assay; this process was repeated daily for 30 days."}}}
{"smiles": "CC1(C)S[C@@H]2[C@H](NC(=O)[C@H](N)c3ccc(O)cc3)C(=O)N2[C@H]1C(=O)O", "note": "[Amoxicilline]", "values": [{"measurement": "MIC", "setting": "P. aeruginosa [1]", "value": "> 100", "unit": "µM"}, {"measurement": "MIC", "setting": "S. aureus", "value": 0.9, "unit": "µM"}, {"measurement": "MIC", "setting": "E. coli", "value": 9, "unit": "µM"}, {"measurement": "MIC", "setting": "B. subtilis", "value": "0.45 to 0.9", "unit": "µM"}]}
{"smiles": "COc1cccc2c1C(=O)c1c(O)c3c(c(O)c1C2=O)C[C@@](O)(C(=O)CO)C[C@@H]3O[C@H]1C[C@H](N)[C@H](O)[C@H](C)O1", "note": "[Doxo, Doxorubicine]", "values": [{"measurement": "IC50", "setting": "MDA-MB-231", "value": 79.8, "unit": "nM"}, {"measurement": "IC50", "setting": "MiaPaCa-2", "value": 190, "unit": "nM"}, {"measurement": "IC50", "setting": "PC-3", "value": 315, "unit": "nM"}]}
{"smiles": "CO/N=C1\\CN(c2nc3c(cc2F)c(=O)c(C(=O)O)cn3C2CC2)CC1CN", "note": "(centres unmarked) [Gemifloxacin]", "values": [{"measurement": "change of MIC against P. aeruginosa on serial passaging (resistance acquisition)", "setting": "P. aeruginosa [2]", "value": "increasing"}]}
